Test results reported in US11453671B2, “Pyrazolopyrimidine inhibitors of JAK kinases and uses thereof” (Genentech, Inc., priority 2020, dated 2022).

Experiments:
[1] = Mouse lung tissue binding (equilibrium dialysis, RED); format: in vitro ADME; details: mouse lung tissue binding, % bound (Table 3)
Procedure: Mouse lung tissue binding. A high bound fraction or percentage of JAK1/JAK2 inhibitors to lung tissue may be undesirable since it can reduce the amount of free drug available to inhibit JAK1 or JAK2.
(a) Tissue binding experiments were performed in triplicate (n=3) using a Single-Use RED Plate by following the standard protocol. Initially, individual drugs were spiked to tissue homogenates (pH 7.4) to achieve a final concentration of 1 μM, and then 300 μL of drug-tissue homogenate mixtures were transferred to the donor wells of the RED plate which was pre-loaded with 500 μL phosphate buffer saline (133 mM) on the receiver wells. The RED plate was sealed with a gas permeable membrane and placed in a shaking incubator (450 rpm, VWR Symphony™) for 6 hr at 37° C. with 5% CO2. At the end of incubation, aliquots of 30 μL samples were taken out of the RED device and matrix equalized with an equal volume of tissue homogenates or buffer, and resulting samples were then immediately quenched with ice cold acetonitrile (sample:acetonitrile 1:4) containing either propranolol or labetalol as an internal standard. After shaking for 15 min at 500 rpm on a Thermo Scientific Compact Digital MicroPlate Shaker, all samples were then subjected to centrifugation at 3700 rpm for 15 min (Beckman Coulter Allegra X 12R) to remove plasma protein. Subsequently, supernatants were collected and then diluted with an equal volume of water prior to LC-MS/MS analysis.
(b) In an alternate procedure, the extent of lung tissue binding of test compound to mouse lung homogenate may also be determined by equilibrium dialysis using Pierce RED (rapid equilibrium dialysis) devices (Fisher Scientific 89811 & 89809). A 10 mM solution of compound in DMSO was prepared and diluted to 1 mM with DMSO. An aliquot of this 1 mM (4 μL) was added into lung homogenate (dilution factor of 1:9, lung tissue:potassium phosphate buffer (0.05 M, pH 7.4)) to give a final compound incubation concentration of 5 μM with solvent accounting for 0.5% (v/v) of the final incubation volume.
For each assay, the percentage lung tissue bound was determined in triplicate. Lung homogenate (200 μL) was loaded into one side of a RED device insert, in triplicate, and 350 μL of potassium phosphate buffer was loaded into the other side. The RED devices were sealed and incubated for 4 hours at ca. 37° C. on an orbital shaker (˜150 rpm).
Following incubation, an aliquot of lung homogenate (8 μL) and an aliquot of dialysate (72 μL) were matrix matched (lung homogenate with 72 μL phosphate buffer, dialysate with 8 μL lung homogenate) ahead of analysis. Protein was precipitated from the samples with the addition of 160 μL of acetonitrile containing internal standard. The same matrix matching and protein precipitation procedure was performed on lung homogenate aliquots sampled at the start of the experiment (t=0 min samples), for the assessment of the mass balance. The quenched samples were centrifuged (4000 rpm, 30 min, 4° C.) and the resultant supernatant diluted with water (3:1 (v/v), supernatant: water) and the samples analysed for parent compound by liquid chromatography mass spectrometry assay.
The unbound fraction (fu) in lung homogenate was determined from the ratio of the dialysate to homogenate peak area, corrected to take into account the lung homogenate dilution (D) to enable an estimate of whole lung tissue binding using the following equations: Undiluted fu=(1/D)/[((1/Apparent fu)−1)+(1/D)] Corrected fraction bound (%)=(1-undiluted fu)*100

[2] = Cell cytotoxicity assay A549 (CellTiter-Glo, 72 hours); format: cell-based; details: human, A549 cells, Table 3; 72 hours, top concentration of 50 μM; read-out: Cytotox A549 EC50
Procedure: (§1) A549 (ATCC® CCL-185™), Jurkat clone E6-1 (ATCC® TIB-152™) and HEK-293T (ATCC® CRL-1573™) cells maintained at a sub-confluent density in T175 flasks were used. Cells in exponential growth phase were plated (450 cells in 45 μL of medium) in Greiner 384-well black/clear tissue culture treated plates (Greiner Catalog No. 781091). After dispensing cells, plates were allowed to equilibrate at room temperature for 30 minutes, after which time the cell plates were placed overnight in a 37° C. CO2 and humidity-controlled incubator. The following day, cells were treated with test agent diluted in 100% DMSO (0.5% final DMSO concentration on cells) with a 10-point titration and a top concentration of 50 μM. Cells and compounds were then incubated for 72 hours in a 37° C. CO2 and humidity-controlled incubator, after which time cell viability was measured by adding CellTiter-Glo® (Promega G7572) reagent to all wells. Plates were incubated at room temperature for 20 minutes and then the well luminescence was read on an EnVision plate reader (Perkin Elmer Life Sciences).

[3] = target: Recombinant human JAK2 kinase domain protein (Residues 812-1132) (Homo sapiens, UniProt O60674); experiment: JAK2 biochemical assay (microfluidic mobility shift, peptide phosphorylation); details: Enzyme JAK2 Ki (nM), 25 μM ATP, 0.2 nM total JAK2
Procedure: JAK1 and JAK2 Biochemical Assays
The in vitro biochemical assays quantify JAK-catalyzed phosphorylation of a synthetic peptide, as detected using a LabChip® EZ Reader II microfluidic mobility shift instrument (PerkinElmer; Waltham, Mass.). […] Y-1B is fluorescently labeled on the N-terminus with 5-FAM (5-carboxyfluorescein) and contains a single tyrosine residue (Y) that can be phosphorylated by JAK activity. The substrate peptide stock is prepared in DMSO at 5 mM.
In each titration experiment, test compound was tested in duplicate at each of the twelve concentrations. Blank reactions contained ATP, peptide, and DMSO, but no JAK or test compound, whereas uninhibited control reactions contained ATP, peptide, JAK, and DMSO, but no test compound.
Peptide plus ATP mixture (24 μL) was added to 1 μL of test compound in DMSO (or DMSO alone). The reactions were initiated by adding 25 μL of JAK enzyme to the inhibitor/peptide/ATP mixture before thoroughly mixing the resultant solution. Reactions were incubated at room temperature (22° C.-23° C.) in a final volume of 50 μL per well in 384-well plates.
In each reaction, the residual Y-1B substrate and the phospho-peptide product generated were separated using the EZ Reader II instrument. Electrophoretic separation of molecules of product from molecules of substrate was achieved using downstream and upstream voltages of −500 and −2600 V, respectively, at an operating pressure of −1.3 psi.
The extent (or percent) of conversion of substrate to product was calculated from the corresponding peak heights in the electropherogram using HTS Well Analyzer software, Version 5.2 (PerkinElmer), and the following equation (Equation 1): % conversion=[P÷(S+P)]×100 Equation 1 where S and P represent the peak heights of the substrate and product, respectively. After any baseline signal from blank wells containing no JAK was subtracted from the signal of all test wells, the % conversion data were converted to fractional activity as shown in Equation 2, where vi and vo are the % conversion in the presence and absence of test compound, respectively.

[4] = Cell cytotoxicity assay HEK-293T (CellTiter-Glo, 72 hours); format: cell-based; details: human, HEK-293T cells, Table 3; 72 hours, top concentration of 50 μM; read-out: Cytotox K-293 EC50
From the text: (§2) Cytotoxicity assays. Hepatocyte toxicity, general cytotoxicity or cytotoxicity of unknown mechanism is an undesirable feature for a potential drug, including inhaled drugs. It may be of benefit for an inhaled JAK1 or JAK1/JAK2 inhibitor to have low intrinsic cytotoxicity against various cell types. Typical cell types used to assess cytotoxicity include both primary cells such as human hepatocytes, and proliferating established cell lines such as Jurkat and HEK-293. […] Methods of measuring cytotoxicity are known in the art. In some embodiments, compounds described herein were tested as follows:
(§3) (a) Jurkat and HEK293T cells were maintained at a sub confluent density in T175 flasks. Cells were plated at 450 cells/45 μl medium in Greiner 384 well black/clear tissue culture treated plates. (Greiner Catalog #781091). After dispensing cells, plates were equilibrated at room temperature for 30 minutes. After 30 minutes at room temperature, cells were incubated overnight at 37° C. in a CO2 and humidity controlled incubator. The following day, cells were treated with compounds diluted in 100% DMSO (final DMSO concentration on cells=0.5%) with a 10 point dose-response curve with a top concentration of 50 μM. Cells and compounds were then incubated for 72 hours overnight at 37° C. in a CO2 and humidity controlled incubator. After 72 hours of incubation, viability was measured using CellTiterGlo® (Promega Catalog #G7572) to all wells. After incubation at room temperature for 20 minutes, plates were read on EnVision™ (Perkin Elmer Life Sciences) using luminescence mode;
as §1

[5] = Cell cytotoxicity assay Jurkat (CellTiter-Glo, 72 hours); format: cell-based; details: human, Jurkat clone E6-1 cells, Table 3; 72 hours, top concentration of 50 μM; read-out: Cytotox Jurkat EC50
From the text: as §2, §3, §1

Sequence of Recombinant human JAK2 kinase domain protein (Residues 812-1132) (O60674 812-1132): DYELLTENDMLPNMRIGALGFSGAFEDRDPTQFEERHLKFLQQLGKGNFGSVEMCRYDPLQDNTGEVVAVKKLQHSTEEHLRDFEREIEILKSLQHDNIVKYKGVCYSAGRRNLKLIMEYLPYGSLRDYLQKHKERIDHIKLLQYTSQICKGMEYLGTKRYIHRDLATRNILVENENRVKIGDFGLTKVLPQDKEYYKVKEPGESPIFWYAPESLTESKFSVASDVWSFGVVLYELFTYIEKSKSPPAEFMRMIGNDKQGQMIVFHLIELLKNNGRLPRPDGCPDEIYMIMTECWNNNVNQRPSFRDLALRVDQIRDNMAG

SMILES | Mouse LTB % [1] | Ki [3] | EC50 at 72 h [2] | EC50 at 72 h [4] | EC50 at 72 h [5]
Cn1cc(NC(=O)c2cnn3cccnc23)c(-c2cc(S(=O)(=O)C3CCCNC3)ccc2OC(F)F)n1 (single isomer, unassigned) [Example 37, N-[3-[2-(difluoromethoxy)-5-(3-piperidylsulfonyl)phenyl]-1-methyl-pyrazol-4-yl]pyrazolo[1,5-a]pyrimidine-3-carboxamide] | 90.1% | 0.54 nM | ≥ 50 µM | 31 µM | ≥ 50 µM
C[C@@H](O)CS(=O)(=O)c1ccc(OC(F)F)c(-c2nn(C)cc2NC(=O)c2cnn3cccnc23)c1 (stereo in doubt) [Example 25, N-[3-[2-(difluoromethoxy)-5-[rac-(2R)-2-hydroxypropyl]sulfonyl-phenyl]-1-methyl-pyrazol-4-yl]pyrazolo[1,5-a]pyrimidine-3-carboxamide] | 85% | 0.2 nM | ≥ 50 µM | 48 µM | ≥ 50 µM
CN1CCCC1CCn1cc(S(=O)(=O)c2ccc(OC(F)F)c(-c3nn(C)cc3NC(=O)c3cnn4cccnc34)c2)cn1 (stereo in doubt) [Example 56, N-[3-[2-(difluoromethoxy)-5-[1-[2-[(2R)-1-methylpyrrolidin-2-yl]ethyl]pyrazol-4-yl]sulfonyl-phenyl]-1-methyl-pyrazol-4-yl]pyrazolo[1,5-a]pyrimidine-3-carboxamide] | 91.4% | 0.76 nM | ≥ 50 µM | 10 µM | 24 µM
Cn1cc(NC(=O)c2cnn3cccnc23)c(-c2cc(S(=O)(=O)C3CCC3)ccc2OC(F)F)n1 [Example 2, N-[3-[5-cyclobutylsulfonyl-2-(difluoromethoxy)phenyl]-1-methyl-pyrazol-4-yl]pyrazolo[1,5-a]pyrimidine-3-carboxamide] | 88.1% | 0.2 nM | 25.5 µM | 27.5 µM | 38.5 µM
Cn1cc(NC(=O)c2cnn3cccnc23)c(-c2cc(S(=O)(=O)CCO)ccc2OC(F)F)n1 [Example 5, N-[3-[2-(difluoromethoxy)-5-(2-hydroxyethylsulfonyl)phenyl]-1-methyl-pyrazol-4-yl]pyrazolo[1,5-a]pyrimidine-3-carboxamide] | 80.1% | 0.19 nM | 45.5 µM | 10.2 µM | 23 µM
CN(C)CCS(=O)(=O)c1ccc(OC(F)F)c(-c2nn(C)cc2NC(=O)c2cnn3cccnc23)c1 [Example 7, N-[3-[2-(difluoromethoxy)-5-[2-(dimethylamino)ethylsulfonyl]phenyl]-1-methyl-pyrazol-4-yl]pyrazolo[1,5-a]pyrimidine-3-carboxamide] | 78.8% | 0.49 nM | 4.1 µM | 6.9 µM | 2.1 µM
COCCS(=O)(=O)c1ccc(OC(F)F)c(-c2nn(C)cc2NC(=O)c2cnn3cccnc23)c1 [Example 14, N-[3-[2-(difluoromethoxy)-5-(2-methoxyethylsulfonyl)phenyl]-1-methyl-pyrazol-4-yl]pyrazolo[1,5-a]pyrimidine-3-carboxamide] | 80.1% |  | ≥ 50 µM | 32 µM | ≥ 50 µM
C[C@H](Cn1cc(S(=O)(=O)c2ccc(OC(F)F)c(-c3nn(C)cc3NC(=O)c3cnn4cccnc34)c2)cn1)N(C)C [Example 59, N-[3-[2-(difluoromethoxy)-5-[1-[(2R)-2-(dimethylamino)propyl]pyrazol-4-yl]sulfonyl-phenyl]-1-methyl-pyrazol-4-yl]pyrazolo[1,5-a]pyrimidine-3-carboxamide] |  | 0.54 nM | 43 µM | 14 µM | 30 µM

Further molecules by falling Ki [3], results first:

Mouse LTB % [1] | Ki [3] | SMILES | EC50 at 72 h [2] | EC50 at 72 h [4] | EC50 at 72 h [5]
81.7% | 0.19 nM | CC(CO)S(=O)(=O)c1ccc(OC(F)F)c(-c2nn(C)cc2NC(=O)c2cnn3cccnc23)c1 (single isomer, unassigned) [Example 24, N-[3-[2-(difluoromethoxy)-5-(2-hydroxy-1-methyl-ethyl)sulfonyl-phenyl]-1-methyl-pyrazol-4-yl]pyrazolo[1,5-a]pyrimidine-3-carboxamide] |  |  | 
85.7% | 0.16 nM | C[C@H](O)CS(=O)(=O)c1ccc(OC(F)F)c(-c2nn(C)cc2NC(=O)c2cnn3cccnc23)c1 (stereo in doubt) [Example 15, N-[3-[2-(difluoromethoxy)-5-[rac-(2S)-2-hydroxypropyl]sulfonyl-phenyl]-1-methyl-pyrazol-4-yl]pyrazolo[1,5-a]pyrimidine-3-carboxamide] | 25 µM | 25 µM | 35 µM
97.1% | 0.14 nM | COc1cccc(S(=O)(=O)c2ccc(OC(F)F)c(-c3nn(C)cc3NC(=O)c3cnn4cccnc34)c2)c1 [Example 12, N-[3-[2-(difluoromethoxy)-5-(3-methoxyphenyl)sulfonyl-phenyl]-1-methyl-pyrazol-4-yl]pyrazolo[1,5-a]pyrimidine-3-carboxamide] | ≥ 50 µM | 36 µM | ≥ 50 µM
82.1% | 0.13 nM | CC(CO)S(=O)(=O)c1ccc(OC(F)F)c(-c2nn(C)cc2NC(=O)c2cnn3cccnc23)c1 (single isomer, unassigned) [Example 23, N-[3-[2-(difluoromethoxy)-5-(2-hydroxy-1-methyl-ethyl)sulfonyl-phenyl]-1-methyl-pyrazol-4-yl]pyrazolo[1,5-a]pyrimidine-3-carboxamide] | 28 µM | 11 µM | 24 µM
